Measured values as given in patent publication US4013774A (priority 1975, dated 1977).
Where two headings read alike, the source gives them in different places.

Experiments:
[1] = tested on: American Cockroach (Periplaneta americana L.); experiment: whole plant or invertebrate; details: 24 h; for mortality at 16 ppm: read-out: Cockroach, mortality, 16 ppm
[2] = tested on: Mosquito larvae (Aedes aegypti); experiment: whole plant or invertebrate; details: 48 h, read-out: Mosquito, mortality, 0.05 ppm
[3] = tested on: Flour Beetle (Tribolium confusum DuVal); experiment: whole plant or invertebrate; details: in Triticum aestivum, 168 h, read-out: Flour Beetle, mortality, 5 ppm
[4] = tested on: Aphids (Aphis gossypii Glover); experiment: whole plant or invertebrate; details: in Cucumis sativus, 24 h; for mortality at 4 ppm: read-out: Aphids, mortality, 4 ppm; for mortality at 40 ppm: read-out: Aphids, mortality, 40 ppm (*)
[5] = in vivo; details: rat, po
[6] = tested on: insects; details: against a variety of insects; background, U.S. Pat. No. 3,474,171; cited from earlier work
[7] = tested on: rats; details: background statement; cited from earlier work
[8] = topical, read-out: Cockroach, mortality, 100 ppm
[9] = read-out: Aphids, mortality, 0.64 ppm

SMILES	mortality at 16 ppm ([1]; topical) [%]	mortality at 100 ppm [1, 8] [%]	mortality at 0.05 ppm [2] [%]	mortality at 5 ppm [3] [%]	mortality at 0.64 ppm [4, 9] [%]	mortality at 4 ppm [4] [%]	LD50 [5] [mg/kg]	mortality at 40 ppm [4] [%]	mortality at 100 ppm ([1]; read-out: control of American cockroaches) [%]	mortality at 0.64 ppm ([4]; read-out: control of aphids) [%]	contact and systemic activity [6]	oral toxicity, LD50 (rats) [7] [mg/kg]
CN(Sc1ccc(Cl)cc1)C(=O)Oc1cccc2c1OC(C)(C)C2 [Compound 4, 2,3-dihydro-2,2-dimethyl-7-benzofuranyl N-methyl N-p-chlorophenylthiocarbamate]	5	100	100	96	97	100	25 to 41					
CN(Sc1cc(Cl)ccc1Cl)C(=O)Oc1cccc2c1OC(C)(C)C2 [Compound 12]			100		61		25 to 125					
CN(Sc1ccc([N+](=O)[O-])cc1)C(=O)Oc1cccc2c1OC(C)(C)C2 [Compound 15]	97	100			96	100	25 to 60					
CN(Sc1ccc(Br)cc1)C(=O)Oc1cccc2c1OC(C)(C)C2 [Compound 13]			93		98		25 to 125					
CN(Sc1ccccc1)C(=O)Oc1cccc2c1OC(C)(C)C2 [Compound 9, N-methyl-N-phenylthio-2,3-dihydro-2,2-dimethyl-7-benzofuranyl carbamate]	37	100			98	100	25 to 125					
CCCCSN(C)C(=O)Oc1cccc2c1OC(C)(C)C2 [Compound 6]	95	100	100		97	100	60 to 125					
CN(Sc1ccc(C(C)(C)C)cc1)C(=O)Oc1cccc2c1OC(C)(C)C2 [Compound 16]	0	67					125 to 250	100				
CSN(C)C(=O)Oc1cccc2c1OC(C)(C)C2 [Compound 3, 2,3-dihydro-2,2-dimethyl-7-benzofuranyl N-methyl N-methylthiocarbamate]	100	100			97	100	5 to 25					
CN(SN(C)C(=O)Oc1cccc2c1OC(C)(C)C2)C(=O)Oc1cccc2c1OC(C)(C)C2 [Bis[O-(2,3-dihydro-2,2-dimethyl-7-benzofuranyl]-N-methylcarbamyl] sulfide]									100	100		
CN(SC(Cl)(Cl)Cl)C(=O)Oc1cccc2c1OC(C)(C)C2 [Compound 1, N-methyl-N-trichloromethylthio-2,3-dihydro-2,2-dimethyl-7-benzofuranyl carbamate]	15	100	46	100	91	100	125 to 250					
CN(Sc1ccc(Cl)c(Cl)c1)C(=O)Oc1cccc2c1OC(C)(C)C2 [Compound 11]			100		97		25 to 125					
CCCCCCCCCCCCSN(C)C(=O)Oc1cccc2c1OC(C)(C)C2 [Compound 8, N-methyl-N-dodecylthio-2,3-dihydro-2,2-dimethyl-7-benzofuranyl carbamate]	0	20					> 125	100				
CNC(=O)Oc1cccc2c1OC(C)(C)C2 [FURADAN, N-methyl 2,3-dihydro-2,2-dimethyl-7-benzofuranyl carbamate, reference compound]	100	100	0	10	73 to 98	100	11				high contact and systemic activity	5 to 11
CCSN(C)C(=O)Oc1cccc2c1OC(C)(C)C2 [Compound 7, N-methyl-N-ethylthio-2,3-dihydro-2,2-dimethyl-7-benzofuranyl carbamate]			26		92		25 to 125					
CN(SC(Cl)=C(Cl)Cl)C(=O)Oc1cccc2c1OC(C)(C)C2 [Compound 5, N-methyl-N-trichlorovinylthio-2,3-dihydro-2,2-dimethyl-7-benzofuranyl carbamate]	47	100			100	100						
Cc1ccc(SN(C)C(=O)Oc2cccc3c2OC(C)(C)C3)cc1 [Compound 10]	2	100		76	96	100	25 to 125					
CN(Sc1ccc(F)cc1)C(=O)Oc1cccc2c1OC(C)(C)C2 [Compound 14, N-methyl-N-4-fluorophenylthio-2,3-dihydro-2,2-dimethyl-7-benzofuranyl carbamate]			100		92		25 to 125					
